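96-well plates; 48 h exposure; 5 concentrations. Endpoints by linear interpolation between flanking doses. Not reached: highest tested concentration assigned. GI50 marks 50% less growth. TGI: total growth inhibition.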
Key:
Assay in all cases: inhibition of tumour cell growth, NCI panel, 48 h
ACHN renal = test system: ACHN renal
BT-549 breast = test system: BT-549 breast
COLO 205 colon = test system: COLO 205 colon
HCT-15 colon = test system: HCT-15 colon
HOP-92 NSCLC = test system: HOP-92 NSCLC
HS 578T breast = test system: HS 578T breast
HT29 colon = test system: HT29 colon
IGROV1 ovarian = test system: IGROV1 ovarian
MCF7 breast = test system: MCF7 breast
MDA-MB-435 = test system: MDA-MB-435
MOLT-4 leukemia = test system: MOLT-4 leukemia
OVCAR-4 ovarian = test system: OVCAR-4 ovarian
SF-268 CNS = test system: SF-268 CNS
SK-MEL-5 melanoma = test system: SK-MEL-5 melanoma
SK-OV-3 ovarian = test system: SK-OV-3 ovarian
SR leukemia = test system: SR leukemia
TK-10 renal = test system: TK-10 renal

SMILES: CCCCn1c(C)c(C(=O)OCC)c2cc(OCc3ccc(C(=O)Nn4c(C)ccc4C)cc3)c(Br)cc21
- TGI (ACHN renal): > 100 µM
- TGI (BT-549 breast): > 100 µM
- TGI (COLO 205 colon): > 100 µM
- TGI (HCT-15 colon): > 100 µM
- TGI (HOP-92 NSCLC): > 100 µM
- TGI (HS 578T breast): > 100 µM
- TGI (HT29 colon): > 100 µM
- TGI (IGROV1 ovarian): > 100 µM
- TGI (MCF7 breast): > 100 µM
- TGI (MDA-MB-435): > 100 µM
- TGI (MOLT-4 leukemia): > 100 µM
- TGI (OVCAR-4 ovarian): > 100 µM
- TGI (SF-268 CNS): > 100 µM
- TGI (SK-MEL-5 melanoma): > 100 µM
- TGI (SK-OV-3 ovarian): > 100 µM
- TGI (SR leukemia): > 100 µM
- TGI (TK-10 renal): > 100 µM

SMILES: CCOC(=O)/C(O)=C(/C=NC(=S)c1ccncc1)C(=O)OCC
- TGI (ACHN renal): > 100 µM
- TGI (BT-549 breast): > 100 µM
- TGI (COLO 205 colon): > 100 µM
- TGI (HCT-15 colon): > 100 µM
- GI50 (HOP-92 NSCLC): > 100 µM
- TGI (HOP-92 NSCLC): > 100 µM
- TGI (HS 578T breast): > 100 µM
- TGI (HT29 colon): > 100 µM
- TGI (IGROV1 ovarian): > 100 µM
- TGI (MCF7 breast): > 100 µM
- TGI (MDA-MB-435): > 100 µM
- TGI (MOLT-4 leukemia): > 100 µM
- TGI (OVCAR-4 ovarian): > 100 µM
- TGI (SF-268 CNS): > 100 µM
- TGI (SK-MEL-5 melanoma): > 100 µM
- TGI (SK-OV-3 ovarian): > 100 µM
- TGI (SR leukemia): > 100 µM
- GI50 (TK-10 renal): > 100 µM
- TGI (TK-10 renal): > 100 µM

SMILES: C=C(C)[C@@H](C(=O)OC)N1C(=O)c2ccccc2C1=O
- TGI (ACHN renal): > 100 µM
- TGI (BT-549 breast): > 100 µM
- TGI (COLO 205 colon): > 100 µM
- TGI (HCT-15 colon): > 100 µM
- TGI (HOP-92 NSCLC): > 100 µM
- TGI (HS 578T breast): > 100 µM
- TGI (HT29 colon): > 100 µM
- TGI (IGROV1 ovarian): > 100 µM
- TGI (MCF7 breast): > 100 µM
- TGI (MDA-MB-435): > 100 µM
- TGI (MOLT-4 leukemia): > 100 µM
- TGI (OVCAR-4 ovarian): > 100 µM
- TGI (SF-268 CNS): > 100 µM
- TGI (SK-MEL-5 melanoma): > 100 µM
- TGI (SK-OV-3 ovarian): > 100 µM
- TGI (SR leukemia): > 100 µM
- TGI (TK-10 renal): > 100 µM

SMILES: S=C(/N=c1/sc(Nc2ccccc2)nc2sc3c(c12)CCCC3)Nc1ccccc1
- TGI (ACHN renal): > 62.5 µM
- TGI (BT-549 breast): > 62.5 µM
- TGI (COLO 205 colon): > 62.5 µM
- TGI (HCT-15 colon): > 62.5 µM
- TGI (HOP-92 NSCLC): > 62.5 µM
- TGI (HS 578T breast): > 62.5 µM
- TGI (HT29 colon): > 62.5 µM
- TGI (IGROV1 ovarian): > 62.5 µM
- TGI (MCF7 breast): > 62.5 µM
- TGI (MDA-MB-435): > 62.5 µM
- TGI (MOLT-4 leukemia): > 62.5 µM
- TGI (OVCAR-4 ovarian): > 62.5 µM
- TGI (SF-268 CNS): > 62.5 µM
- TGI (SK-MEL-5 melanoma): > 62.5 µM
- TGI (SK-OV-3 ovarian): > 62.5 µM
- TGI (SR leukemia): > 62.5 µM
- TGI (TK-10 renal): > 62.5 µM

SMILES: CCSc1nc(N2CCOCC2)c2cn[nH]c2n1
- TGI (ACHN renal): > 100 µM
- TGI (BT-549 breast): > 100 µM
- TGI (COLO 205 colon): > 100 µM
- TGI (HCT-15 colon): > 100 µM
- TGI (HOP-92 NSCLC): > 100 µM
- TGI (HS 578T breast): > 100 µM
- TGI (HT29 colon): > 100 µM
- TGI (IGROV1 ovarian): > 100 µM
- TGI (MCF7 breast): > 100 µM
- TGI (MDA-MB-435): > 100 µM
- TGI (MOLT-4 leukemia): > 100 µM
- TGI (OVCAR-4 ovarian): > 100 µM
- TGI (SF-268 CNS): > 100 µM
- TGI (SK-MEL-5 melanoma): > 100 µM
- TGI (SK-OV-3 ovarian): > 100 µM
- TGI (SR leukemia): > 100 µM
- TGI (TK-10 renal): > 100 µM

SMILES: O=C1NC(Nc2cccc(Cl)c2)=N/C1=C\c1ccc(Cl)c(Cl)c1
- TGI (ACHN renal): 17 µM
- TGI (BT-549 breast): 25.1 µM
- TGI (COLO 205 colon): 13.1 µM
- TGI (HCT-15 colon): 18.6 µM
- TGI (HOP-92 NSCLC): 11.4 µM
- TGI (HS 578T breast): 13.4 µM
- TGI (HT29 colon): 19.6 µM
- TGI (IGROV1 ovarian): 18.7 µM
- TGI (MCF7 breast): 11.1 µM
- TGI (MDA-MB-435): 17.6 µM
- TGI (MOLT-4 leukemia): 20.8 µM
- TGI (OVCAR-4 ovarian): 5.49 µM
- TGI (SF-268 CNS): 19.4 µM
- TGI (SK-MEL-5 melanoma): 19.1 µM
- TGI (SK-OV-3 ovarian): 27.5 µM
- TGI (SR leukemia): 7.37 µM
- TGI (TK-10 renal): 22.4 µM

SMILES: CC(C)NC(=O)OCc1c(COC(=O)NC(C)C)c(-c2ccc[n+](COC(=O)CC(C)(C)C)c2)n2c1CCC2
- TGI (ACHN renal): > 100 µM
- TGI (BT-549 breast): > 100 µM
- TGI (COLO 205 colon): > 100 µM
- TGI (HCT-15 colon): > 100 µM
- TGI (HOP-92 NSCLC): > 100 µM
- TGI (HS 578T breast): > 100 µM
- TGI (HT29 colon): > 100 µM
- TGI (IGROV1 ovarian): > 100 µM
- TGI (MCF7 breast): > 100 µM
- TGI (MDA-MB-435): > 100 µM
- TGI (MOLT-4 leukemia): > 100 µM
- TGI (OVCAR-4 ovarian): > 100 µM
- TGI (SF-268 CNS): > 100 µM
- TGI (SK-MEL-5 melanoma): > 100 µM
- TGI (SK-OV-3 ovarian): > 100 µM
- TGI (SR leukemia): > 100 µM
- TGI (TK-10 renal): > 100 µM

SMILES: CC(=O)c1cccc2c1CC1(C2)Cc2ccc3c(c2C1=O)CCC3 (stereo not given)
- TGI (ACHN renal): > 100 µM
- TGI (BT-549 breast): > 100 µM
- TGI (COLO 205 colon): 92.4 µM
- TGI (HCT-15 colon): > 100 µM
- TGI (HOP-92 NSCLC): 64.2 µM
- TGI (HS 578T breast): > 100 µM
- TGI (HT29 colon): > 100 µM
- TGI (IGROV1 ovarian): > 100 µM
- TGI (MCF7 breast): 76.4 µM
- TGI (MDA-MB-435): > 100 µM
- TGI (MOLT-4 leukemia): > 100 µM
- TGI (OVCAR-4 ovarian): > 100 µM
- TGI (SF-268 CNS): > 100 µM
- TGI (SK-MEL-5 melanoma): 33.7 µM
- TGI (SK-OV-3 ovarian): > 100 µM
- TGI (SR leukemia): 73.1 µM
- TGI (TK-10 renal): 77.6 µM

SMILES: COC12C=CC(CC1)C(C)(C)C2=O (stereo not given)
- TGI (ACHN renal): > 100 µM
- TGI (BT-549 breast): > 100 µM
- TGI (COLO 205 colon): > 100 µM
- TGI (HCT-15 colon): > 100 µM
- TGI (HOP-92 NSCLC): > 100 µM
- TGI (HS 578T breast): > 100 µM
- TGI (HT29 colon): > 100 µM
- TGI (IGROV1 ovarian): > 100 µM
- TGI (MCF7 breast): > 100 µM
- TGI (MDA-MB-435): > 100 µM
- TGI (MOLT-4 leukemia): > 100 µM
- TGI (OVCAR-4 ovarian): > 100 µM
- TGI (SF-268 CNS): > 100 µM
- TGI (SK-MEL-5 melanoma): > 100 µM
- TGI (SK-OV-3 ovarian): > 100 µM
- TGI (SR leukemia): > 100 µM
- TGI (TK-10 renal): > 100 µM

From PubChem BioAssay (NCI)
